According to patent US12595253B2, “Benzamides of pyrazolylamino-pyrimidinyl derivatives, and compositions and methods thereof” (LYNK PHARMACEUTICALS CO. LTD., priority 2019, dated 2026):

Columns and labels:
Format in all cases: biochemical
[1] = biological target: T1, JAK2 (Homo sapiens, UniProt O60674); test: JAK2 microfluidic kinase assay (Caliper EZ Reader II, FAM labeled peptide substrate)
T1 construct: purchased Carna Biosciences
Method in brief: (§1)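 3-fold serial dilutions, top 5 μM, 1% DMSO final; 10 min preincubation with enzyme, RT. Buffer: 50 mM HEPES, 0.01% Brij35, 10 mM MgCl2, 2 mM DTT. Enzyme batch tuned to 10% peptide conversion. EDTA stop, mobility-shift readout, IC50 fit.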

[2] = biological target: T2, JAK1 (Homo sapiens, UniProt P23458); test: JAK1 microfluidic kinase assay (Caliper EZ Reader II, FAM labeled peptide substrate)
T2 construct: purchased Carna Biosciences
T2 sequence (P23458 whole entry): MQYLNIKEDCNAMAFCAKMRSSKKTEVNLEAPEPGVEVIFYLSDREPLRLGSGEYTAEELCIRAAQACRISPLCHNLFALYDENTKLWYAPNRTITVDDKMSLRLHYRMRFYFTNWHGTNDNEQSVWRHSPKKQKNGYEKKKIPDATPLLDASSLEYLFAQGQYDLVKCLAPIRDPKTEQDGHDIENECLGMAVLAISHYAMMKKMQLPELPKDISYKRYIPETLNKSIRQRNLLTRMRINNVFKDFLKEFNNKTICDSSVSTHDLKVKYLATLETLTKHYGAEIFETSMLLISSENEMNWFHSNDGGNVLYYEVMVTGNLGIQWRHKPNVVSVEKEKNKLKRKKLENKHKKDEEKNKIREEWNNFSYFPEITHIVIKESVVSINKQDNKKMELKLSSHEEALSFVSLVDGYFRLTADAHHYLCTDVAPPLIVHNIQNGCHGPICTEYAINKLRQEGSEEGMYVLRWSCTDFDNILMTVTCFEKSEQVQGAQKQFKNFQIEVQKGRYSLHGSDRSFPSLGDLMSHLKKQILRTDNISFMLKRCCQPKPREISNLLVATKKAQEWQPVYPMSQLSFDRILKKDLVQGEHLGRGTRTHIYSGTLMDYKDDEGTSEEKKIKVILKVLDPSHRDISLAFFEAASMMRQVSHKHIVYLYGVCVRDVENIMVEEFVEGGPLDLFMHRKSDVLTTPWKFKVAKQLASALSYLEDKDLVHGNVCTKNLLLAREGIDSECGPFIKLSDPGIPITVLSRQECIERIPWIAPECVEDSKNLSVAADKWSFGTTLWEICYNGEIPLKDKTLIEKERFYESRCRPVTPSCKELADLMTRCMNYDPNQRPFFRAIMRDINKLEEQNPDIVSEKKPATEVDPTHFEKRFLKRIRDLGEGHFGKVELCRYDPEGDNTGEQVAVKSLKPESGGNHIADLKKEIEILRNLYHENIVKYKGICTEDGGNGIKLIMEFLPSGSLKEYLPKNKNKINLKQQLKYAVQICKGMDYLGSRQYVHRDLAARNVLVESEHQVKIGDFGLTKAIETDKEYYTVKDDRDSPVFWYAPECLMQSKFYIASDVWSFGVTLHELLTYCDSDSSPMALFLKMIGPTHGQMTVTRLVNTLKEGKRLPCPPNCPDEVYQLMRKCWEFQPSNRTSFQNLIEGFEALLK
Method in brief: as §1

[3] = biological target: T3, TYK2 (Homo sapiens, UniProt P29597); test: TYK2 microfluidic kinase assay (Caliper EZ Reader II, FAM labeled peptide substrate)
T3 construct: purchased Carna Biosciences
T3 sequence (P29597 whole entry): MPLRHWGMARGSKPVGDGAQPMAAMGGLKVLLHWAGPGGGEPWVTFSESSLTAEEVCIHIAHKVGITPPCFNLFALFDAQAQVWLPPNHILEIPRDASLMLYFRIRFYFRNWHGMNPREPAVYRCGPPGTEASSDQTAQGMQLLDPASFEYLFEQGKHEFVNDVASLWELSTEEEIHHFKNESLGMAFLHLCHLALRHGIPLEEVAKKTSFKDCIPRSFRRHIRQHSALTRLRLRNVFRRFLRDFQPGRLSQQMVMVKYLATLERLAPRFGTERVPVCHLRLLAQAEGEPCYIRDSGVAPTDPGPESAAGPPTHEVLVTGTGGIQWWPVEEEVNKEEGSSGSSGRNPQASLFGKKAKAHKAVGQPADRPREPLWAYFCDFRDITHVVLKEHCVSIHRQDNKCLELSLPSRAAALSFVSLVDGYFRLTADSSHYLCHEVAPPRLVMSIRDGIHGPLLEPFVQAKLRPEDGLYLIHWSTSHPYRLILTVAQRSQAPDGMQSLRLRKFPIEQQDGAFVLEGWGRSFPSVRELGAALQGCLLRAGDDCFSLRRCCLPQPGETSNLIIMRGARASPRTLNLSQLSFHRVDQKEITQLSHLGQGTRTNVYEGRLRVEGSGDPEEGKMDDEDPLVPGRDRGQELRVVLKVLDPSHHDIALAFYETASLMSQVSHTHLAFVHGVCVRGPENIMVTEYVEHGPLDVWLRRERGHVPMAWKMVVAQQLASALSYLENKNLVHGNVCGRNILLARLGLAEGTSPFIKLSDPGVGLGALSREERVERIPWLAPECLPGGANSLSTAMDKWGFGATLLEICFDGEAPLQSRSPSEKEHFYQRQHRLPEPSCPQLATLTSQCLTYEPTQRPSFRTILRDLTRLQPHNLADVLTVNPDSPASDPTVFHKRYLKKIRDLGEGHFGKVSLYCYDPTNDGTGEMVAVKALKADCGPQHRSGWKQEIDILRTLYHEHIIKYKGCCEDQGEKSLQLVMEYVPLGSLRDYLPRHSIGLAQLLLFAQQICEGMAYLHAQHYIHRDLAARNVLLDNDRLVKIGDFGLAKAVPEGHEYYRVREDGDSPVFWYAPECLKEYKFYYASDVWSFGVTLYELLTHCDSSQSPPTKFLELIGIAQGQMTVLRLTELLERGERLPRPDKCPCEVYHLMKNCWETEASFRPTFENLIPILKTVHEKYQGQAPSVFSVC
Procedure: Compounds were tested against JAK1, JAK2, JAK2V617F and TYK2. Assay Formats: JAK activity was determined in the reaction buffer 50 mM HEPES, 0.01% Brij35, 10 mM MgCl2, 2 mM DTT by a microfluidic assay. The phosphorylation of a FAM labeled peptide substrate was monitored in the Caliper EZ Reader II (Perkin Elmer). The assay condition for each batch of enzyme (Carna Biosciences) was optimized to obtain 10% conversion rate of peptide substrate. The test compounds were dissolved in DMSO to a stock concentration of 10 mM. 3-fold serially diluted compounds with top concentration of 5 μM were pre-incubated with JAK1, JAK2, JAK2V617F or TYK2 at indicated concentrations for 10 min at ambient temperature. The final DMSO concentration of assay mixture was 1%. […] The reaction was stopped by adding 50 mM EDTA. The reaction time for JAK1, JAK2, JAK2V617F and TYK2 was 120 min, 20 min, 30 min and 10 min, respectively. […] And the well without compound but with equivalent DMSO was defined as no inhibition. The percent inhibition was calculated by the following formula. % Inhibition=(Conversionmax−Conversionsample)/(Conversionmax−Conversionmin)*100 • Conversionmax means the conversion rate in the positive well without addition of compound • Conversionmin means the conversion rate in the well without addition of enzyme • Conversionsample means the conversion rate of test compounds The dose-response (percent inhibition) curve was plotted and IC50 values were determined by GraphPad software.

[4] = biological target: T4, JAK2V617F (Homo sapiens, UniProt O60674, V617F); test: JAK2V617F microfluidic kinase assay (Caliper EZ Reader II, FAM labeled peptide substrate); conditions: JAK2V617F 2.5 nM, 1 mM ATP
T4 construct: purchased Carna Biosciences
T4 sequence (O60674 whole entry V617F): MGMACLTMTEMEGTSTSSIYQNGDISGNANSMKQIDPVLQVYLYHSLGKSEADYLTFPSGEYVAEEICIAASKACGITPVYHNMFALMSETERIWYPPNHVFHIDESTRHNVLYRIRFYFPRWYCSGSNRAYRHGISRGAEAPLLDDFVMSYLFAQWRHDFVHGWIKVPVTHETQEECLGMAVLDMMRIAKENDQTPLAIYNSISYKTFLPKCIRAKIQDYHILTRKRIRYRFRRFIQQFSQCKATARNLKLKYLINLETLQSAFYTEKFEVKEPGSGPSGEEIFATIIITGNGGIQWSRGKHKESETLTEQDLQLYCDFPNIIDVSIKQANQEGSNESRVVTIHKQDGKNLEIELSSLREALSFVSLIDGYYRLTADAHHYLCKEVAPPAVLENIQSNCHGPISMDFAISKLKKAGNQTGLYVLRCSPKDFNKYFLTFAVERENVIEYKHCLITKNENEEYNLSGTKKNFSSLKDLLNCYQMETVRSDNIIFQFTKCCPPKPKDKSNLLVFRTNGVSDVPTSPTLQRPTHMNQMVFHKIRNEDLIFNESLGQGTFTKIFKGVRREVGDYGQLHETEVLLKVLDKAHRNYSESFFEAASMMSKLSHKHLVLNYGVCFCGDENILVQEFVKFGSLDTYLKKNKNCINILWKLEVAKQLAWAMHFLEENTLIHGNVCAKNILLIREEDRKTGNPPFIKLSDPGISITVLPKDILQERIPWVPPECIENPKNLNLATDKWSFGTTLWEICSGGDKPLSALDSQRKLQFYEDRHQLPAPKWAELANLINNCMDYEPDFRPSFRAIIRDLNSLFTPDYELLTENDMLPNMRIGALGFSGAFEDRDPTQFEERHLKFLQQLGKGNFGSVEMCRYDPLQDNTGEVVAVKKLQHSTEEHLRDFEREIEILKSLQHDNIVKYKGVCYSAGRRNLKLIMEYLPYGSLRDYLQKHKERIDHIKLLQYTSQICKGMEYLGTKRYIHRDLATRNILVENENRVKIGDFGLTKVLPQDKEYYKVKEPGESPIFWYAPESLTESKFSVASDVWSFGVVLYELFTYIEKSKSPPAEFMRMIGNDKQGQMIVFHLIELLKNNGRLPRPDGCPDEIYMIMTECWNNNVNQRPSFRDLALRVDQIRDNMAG
Method in brief: as §1

[5] = IC50 JAK2 ([…]) (1 mM ATP), 1 mM ATP
[6] = IC50 JAK2 ([…]) (Km ATP), Km ATP
[7] = IC50 JAK1 (5 nM) (1 m MATP), JAK1 5 nM, 1 mM ATP
[8] = IC50 JAK1 (10 nM) (Km ATP), JAK1 10 nM, Km ATP
[9] = IC50 TYK2 ([…]) (1 mM ATP), TYK2 […], 1 mM ATP

T1 sequence (O60674 whole entry): as the sequence (O60674 whole entry V617F) above, with F617V counted along it

| IC50 [1, 5] [nM] | IC50 [1, 6] [nM] | IC50 [2, 7] [nM] | IC50 [2, 8] [nM] | IC50 ([3]; IC50 TYK2 (10 nM) (Km ATP), TYK2 10 nM, Km ATP) [nM] | IC50 [3, 9] [nM] | IC50 [4] [nM] | SMILES |
| --- | --- | --- | --- | --- | --- | --- | --- |
| < 0.25 | < 0.25 | 10.9 | 2.22 | 0.51 | 17.4 | 3.55 | Cc1cnc(Nc2cnn(C3CCN(C(=O)C(C)(C)C)CC3)c2)nc1-c1ccc(C(=O)NCC#N)cc1 [Example 21, N-(Cyanomethyl)-4-(5-methyl-2-((1-(1-pivaloylpiperidin-4-yl)-1H-pyrazol-4-yl)amino)pyrimidin-4-yl)benzamide] |
| 25.2 | – | 5.55 | – | – | 42.7 | 53.5 | C[C@@H](C#N)NC(=O)c1ccc(-c2nc(Nc3cnn(CC#N)c3)ncc2Cl)cc1 [Example 46, (S)-4-(5-Chloro-2-((1-(cyanomethyl)-1H-pyrazol-4-yl)amino)pyrimidin-4-yl)-N-(1-cyanoethyl)benzamide] |
| 0.81 | – | 7.13 | – | – | 38.2 | 57.2 | Cc1cnc(Nc2cnn(C3CCN(C)CC3)c2)nc1-c1ccc(C(=O)NCC#N)cc1 [Example 49, N-(cyanomethyl)-4-(5-methyl-2-((1-(1-methylpiperidin-4-yl)-1H-pyrazol-4-yl)amino)pyrimidin-4-yl)benzamide] |
| – | – | 18.3 | – | – | 70 | 51.7 | Cc1cnc(Nc2cnn(C3CCN(C)C(=O)C3)c2)nc1-c1ccc(C(=O)NCC#N)cc1 (stereo not shown) [Example 66, N-(cyanomethyl)-4-(5-methyl-2-((1-(1-methyl-2-oxopiperidin-4-yl)-1H-pyrazol-4-yl)amino)pyrimidin-4-yl)benzamide] |
| 46.5 | 1.3 | 19.6 | 3.32 | – | 83 | 115 | Cc1cnc(Nc2cnn(C)c2)nc1-c1ccc(C(=O)NCC#N)cc1 [Example 11, N-(cyanomethyl)-4-(5-methyl-2-((1-methyl-1H-pyrazol-4-yl)amino)pyrimidin-4-yl)benzamide] |
| 83.4 | – | 23.6 | – | – | 111 | 136 | CC[C@@H](C#N)NC(=O)c1ccc(-c2nc(Nc3cnn(C4CCN(C)CC4)c3)ncc2F)cc1 [Example 59, (S)—N-(1-cyanopropyl)-4-(5-fluoro-2-((1-(1-methylpiperidin-4-yl)-1H-pyrazol-4-yl)amino)pyrimidin-4-yl)benzamide] |
| 10.6 | – | 5.17 | – | – | 31.4 | 33.3 | Cc1cnc(Nc2cnn(C3CC3)c2)nc1-c1ccc(C(=O)N[C@@H](C)C#N)cc1 [Example 94, (S)—N-(1-cyanoethyl)-4-(2-((1-cyclopropyl-1H-pyrazol-4-yl)amino)-5-methylpyrimidin-4-yl)benzamide] |
| 0.58 | – | 22.7 | – | – | 370 | 7.74 | CC(C)(C#N)CNC(=O)c1ccc(-c2nc(Nc3cnn(C4CCOCC4)c3)ncc2Cl)cc1 [Example 80, 4-(5-Chloro-2-((1-(tetrahydro-2H-pyran-4-yl)-1H-pyrazol-4-yl)amino)pyrimidin-4-yl)-N-(2-cyano-2-methylpropyl)benzamide] |
| 293 | – | 69.7 | – | – | 198 | 658 | C[C@@H](C#N)NC(=O)c1ccc(-c2nc(Nc3cnn(CC#N)c3)ncc2F)cc1 [Example 53, (S)—N-(1-cyanoethyl)-4-(2-((1-(cyanomethyl)-1H-pyrazol-4-yl)amino)-5-fluoropyrimidin-4-yl)benzamide] |
| 22.1 | – | 3.83 | – | – | 45 | – | CC[C@@H](C#N)NC(=O)c1ccc(-c2nc(Nc3cnn(CCC#N)c3)ncc2Cl)cc1 [Example 190, (S)-4-(5-chloro-2-((1-(2-cyanoethyl)-1H-pyrazol-4-yl)amino)pyrimidin-4-yl)-N-(1-cyanopropyl)benzamide] |
| 256 | – | 59.6 | – | – | 251 | – | N#CCNC(=O)c1ccc(-c2nc(Nc3cnn(CC#N)c3)ncc2F)cc1 [Example 45, N-(cyanomethyl)-4-(2-((1-(cyanomethyl)-1H-pyrazol-4-yl)amino)-5-fluoropyrimidin-4-yl)benzamide] |
| 25.2 | – | 2.47 | – | – | 39.7 | – | C[C@@H](C#N)NC(=O)c1ccc(-c2nc(Nc3cnn(CCO)c3)ncc2Cl)cc1 [Example 186, (S)-4-(5-chloro-2-((1-(2-hydroxyethyl)-1H-pyrazol-4-yl)amino)pyrimidin-4-yl)-N-(1-cyanoethyl)benzamide] |
| 0.91 | – | 1.88 | – | – | 33.3 | – | Cc1cnc(Nc2cnn(C3CCN(CCO)CC3)c2)nc1-c1ccc(C(=O)N[C@@H](C)C#N)cc1 [Example 204, (S)—N-(1-cyanoethyl)-4-(2-((1-(1-(2-hydroxyethyl)piperidin-4-yl)-1H-pyrazol-4-yl)amino)-5-methylpyrimidin-4-yl)benzamide] |
| 1.63 | – | 80.6 | – | – | 245 | – | Cc1cnc(Nc2cnn([C@@H]3C[C@@H](C)N[C@@H](C)C3)c2)nc1-c1ccc(C(=O)N[C@@H](C)C#N)cc1 [Example 231, N—((S)-1-cyanoethyl)-4-(2-((1-((2S,4s,6R)-2,6-dimethylpiperidin-4-yl)-1H-pyrazol-4-yl)amino)-5-methylpyrimidin-4-yl)benzamide] |
| 18.3 | – | 2.9 | – | – | 20.4 | – | C[C@@H](C#N)NC(=O)c1ccc(-c2nc(Nc3cn[nH]c3)ncc2Cl)cc1 [Example 188, (S)-4-(2-((1H-pyrazol-4-yl)amino)-5-chloropyrimidin-4-yl)-N-(1-cyanoethyl)benzamide] |
| 0.43 | – | 6.03 | – | – | < 0.25 | – | CC[C@@H](C#N)NC(=O)c1ccc(-c2nc(Nc3cnn(C4CC(C)(C)OC(C)(C)C4)c3)ncc2C)cc1 [Example 179, (S)—N-(1-cyanopropyl)-4-(5-methyl-2-((1-(2,2,6,6-tetramethyltetrahydro-2H-pyran-4-yl)-1H-pyrazol-4-yl)amino)pyrimidin-4-yl)benzamide] |
| 42.6 | – | 8.95 | – | – | 66.9 | – | CC[C@@H](C#N)NC(=O)c1ccc(-c2nc(Nc3cnn(C(C)C(F)(F)F)c3)ncc2C)cc1 (single isomer, unassigned) [Example 225, N—((S)-1-Cyanopropyl)-4-(5-methyl-2-((1-((R*)-1,1,1-trifluoropropan-2-yl)-1H-pyrazol-4-yl)amino)pyrimidin-4-yl)benzamide] |
| 0.43 | – | 9.9 | – | – | 2.97 | – | Cc1cnc(Nc2cnn([C@H]3C[C@@H](C)N[C@@H](C)C3)c2)nc1-c1ccc(C(=O)N[C@@H](C)C#N)cc1 [Example 232, N—((S)-1-cyanoethyl)-4-(2-((1-((2S,4r,6R)-2,6-dimethylpiperidin-4-yl)-1H-pyrazol-4-yl)amino)-5-methylpyrimidin-4-yl)benzamide] |
| 22.5 | – | 2.45 | – | – | 14.7 | – | CCC[C@@H](C#N)NC(=O)c1ccc(-c2nc(Nc3cnn(CCO)c3)ncc2C)cc1 [Example 192, (S)—N-(1-cyanobutyl)-4-(2-((1-(2-hydroxyethyl)-1H-pyrazol-4-yl)amino)-5-methylpyrimidin-4-yl)benzamide] |
| 0.71 | – | 14.2 | – | – | 24.2 | – | Cc1cnc(Nc2cnn(C3C[C@@H](C)N[C@H](C)C3)c2)nc1-c1ccc(C(=O)N[C@@H](C)C#N)cc1 (stereo partly drawn) [Example 230, N—((S)-1-cyanoethyl)-4-(2-((1-(trans-2,6-dimethylpiperidin-4-yl)-1H-pyrazol-4-yl)amino)-5-methylpyrimidin-4-yl)benzamide] |
| 0.78 | – | 6.66 | – | – | 1.04 | – | Cc1cnc(Nc2cnn(C3CCNCC3)c2)nc1-c1ccc(C(=O)N[C@@H](C)C#N)cc1 [Example 170, (S)—N-(1-Cyanoethyl)-4-(5-methyl-2-((1-(piperidin-4-yl)-1H-pyrazol-4-yl)amino)pyrimidin-4-yl)benzamide] |
